Structures can show the parent of a compound that is named as a salt. Where two headings read alike, the source gives them in different places.
Legend:
[1] = tested on: Aerobacter cloacae (MB-2646); assay: inactivation by cell-free filtrate; assay type: biochemical; details: for Antibiotic Activity Remaining: starting concentration 250 μg./ml.
Experimental: The ability of Antibiotic 810A and cephalosporin C to withstand the degradative effect of the culture Aerobacter cloacae (MB-2646) was also determined. This culture is gram-negative and resistant to cephalosporin C. […] The source of the inactivating substance is a 1:160 dilution of the filtrate of an 18 hour 37° C. shake culture of Aerobacter cloacae MB-2646 in nutrient broth containing 0.2% yeast extract. Table XIV, infra, indicates the percent inactivation of Antibiotic 810A, cephalothin, cephaloridine and cephalosporin C on Vibrio percolans (MB-1272) via this method:
Using the same assay procedure as described above, Table XV, infra, indicates the relative resistance of Antibiotic 810A to enzymatic inactivation by Aerobacter cloacae. The starting concentration in 250 μg./ml. Results are expressed in μg./ml.

[2] = tested on: Proteus morganii 356; assay: mouse protection test, clinical isolate; assay type: in vivo, mice; details: subcutaneous route × 2 doses (average of two trials)
Experimental: (§1) Methods: The method employed in this characterization is as follows: Female white Swiss mice, average weight 20-23 grams, were infected intraperitoneally with 3-20 times the number of organisms calculated to be lethal for 50% of the infected control animals (3-20 LD50 doses). At the time of infection and again 6 hours later, therapy was given by the designated route. Controls of the virulence of the culture and the toxicity of the antibiotic for uninfected mice were included in the tests. Seven days after infection the test was considered complete and the amount of the antibiotic (I) that would be required to protect 50% of the infected and treated animals was calculated by the method of Knudsen and Curtis: J. Amer. Stat. Assoc. Vol. 42: page 282 (1947).
Administration was by subcutaneous injection. At the completion of the test period, usually 7 days after administration, the amount of product required to protect 50% of the mice (ED50) from this otherwise fatal injection was calculated:
In addition to the aforementioned in vivo trials of the product, a clinical isolate of Proteus morganii 356 which is resistant to cephalosporins and capable of degrading cephalosporin C, was employed in a mouse protection test performed in the same manner as reported above.

[3] = tested on: Proteus morganii 3202; assay: in vivo protection of infected mice; details: subcutaneous; 4000 mg. × 2 doses (so in the source)
Experimental: as §1
The method employed in these studies is the same as described above with regard to the in vivo characterization of 810A. The results of these tests are described below in Table XIb:
Administration was by subcutaneous injection. At the completion of the test period, usually 7 days after administration, the amount of product required to protect 50% of the mice (ED50) from this otherwise fatal injection was calculated: […]

[4] = tested on: Alcaligenes viscosus (MB-12); assay: bacterial inactivation by washed cells; details: 4 hour incubation; assayed on B. subtilis (MB-964)
[5] = tested on: Alcaligenes faecalis (MB-9); details: organism known to inactivate; cited from earlier work
[6] = tested on: gram-negative and gram-positive bacteria; details: background statement, cited from earlier work
[7] = tested on: Escherichia coli 236; assay: bacterial inactivation; details: 4 hours incubation; assayed on B. subtilis (MB-964)
Experimental: (§2) These cultures are: Escherichia coli 236, Proteus morganii 251, Proteus morganii 356 and Proteus mirabilis 241. […] In conducting the assay, individual mixtures of the organisms and one of the antibiotics were sampled after 4 hours incubation and assayed for residual antibiotic activity. The procedure is the same assay method as described above against Alcaligenes faecalis MB-9 and A. viscosus MB-12.

[8] = tested on: Proteus morganii 251; assay: bacterial inactivation; details: 4 hours incubation; assayed on B. subtilis (MB-964)
Experimental: as §2

[9] = tested on: Proteus mirabilis 241; assay: bacterial inactivation; details: 4 hours incubation; assayed on B. subtilis (MB-964)
Experimental: as §2

[10] = tested on: Proteus morganii 356; assay: bacterial inactivation; details: 4 hours incubation; assayed on B. subtilis (MB-964)
Experimental: as §2

[11] = tested on: Alcaligenes faecalis (MB-9); assay: bacterial inactivation by washed cells
[12] = tested on: penicillinase; details: background statement; cited from earlier work
[13] = tested on: Alcaligenes viscosus (MB-12); details: organism known to inactivate; cited from earlier work
[14] = tested on: cephalosporinases; details: background statement; cited from earlier work
[15] = tested on: Alcaligenes faecalis (MB-9); details: 3 h
[16] = tested on: Vibrio percolans (MB-1272); assay: disc-plate assay using Vibrio percolans; details: Comamonas terrigena, read-out: concentration giving a 25 mm. zone, Example 11 concentrate at a dilution of 1:100
[17] = 2 hour incubation, assay organism B. subtilis 964
[18] = 2 hour incubation, assay organism V. percolans 1272
[19] = 2 hour incubation, assayed on V. percolans (MB-1272)

Compound: O=C(Cc1cccs1)N[C@@H]1C(=O)N2C(C(=O)[O-])=C(C[n+]3ccccc3)CS[C@H]12 [Cephaloridine]
- Percent Inactivation After Incubation With Cell-Free Extract ([1]; aerobacter cloacae culture filtrate, 2 h): 96%
- Antibiotic Activity Remaining [1, 17]: < 10 µg/mL
- Antibiotic Activity Remaining [1, 18]: < 10 µg/mL
- ED50 [2]: 9,270 μg.
- protection of infected mice [3]: failed to protect

Compound: CC(=O)OCC1=C(C(=O)O)N2C(=O)[C@@H](NC(=O)CCC[C@@H](N)C(=O)O)[C@H]2SC1 [Cephalosporin C]
- Percent Inactivation After Incubation With Cell-Free Extract [1, 19]: 96%
- Percent Inactivation After Incubation With Washed Bacterial Cells [4]: > 99%
- inactivation of cephalosporin C [5]: completely inactivate
- antibacterial activity [6]: only moderately active
- antibacterial activity ([6]; listed as cephalosporin C): relatively low antibacterial activity
- percent inactivation [7]: > 99%
- percent inactivation [8]: > 99%
- percent inactivation [9]: 72%
- percent inactivation [10]: > 99%
- Percent Inactivation After Incubation With Washed Bacterial Cells ([11]; 3 hour incubation, assayed on B. subtilis (MB-964), 4 mg./ml.): > 99%
- Percent Inactivation After Incubation With Washed Bacterial Cells ([11]; 3 hour incubation, assayed on V. percolans (MB-1272)): > 99%
- Percent Inactivation After Incubation With Washed Bacterial Cells ([11]; 4 hour incubation, assayed on B. subtilis (MB-964)): > 99%
- behaviour toward penicillinase [12]: inherent resistance to penicillinase
- inactivation of cephalosporin C [13]: completely inactivate
- behaviour toward cephalosporinases [14]: effective in destroying its activity

Compound: CC(=O)OCC1=C(C(=O)O)N2C(=O)[C@@H](NC(=O)Cc3cccs3)[C@H]2SC1 [Cephalothin]
- Percent Inactivation After Incubation With Cell-Free Extract [1, 19]: 66%
- Antibiotic Activity Remaining [1, 17]: 140 µg/mL
- Antibiotic Activity Remaining [1, 18]: 85 µg/mL
- ED50 [2]: > 20,000 μg.
- Percent Inactivation After Incubation With Washed Bacterial Cells [15]: 50%
- protection of infected mice [3]: failed to protect

Compound: CC1(C)S[C@@H]2[C@H](NC(=O)Cc3ccccc3)C(=O)N2[C@H]1C(=O)O [Penicillin G]
- behaviour toward penicillinase [12]: degraded to a form which is ineffective against most pathogens

Compound: CO[C@@]1(NC(=O)CCC[C@@H](N)C(=O)O)C(=O)N2C(C(=O)O)=C(COC(N)=O)CS[C@@H]21 [Sodium Salt]
- IC (25 mm zone) [16]: 400 µg/mL
